Test results: US12606520B2, “Calpain-2 inhibitor compounds and methods of treatment” (WESTERN UNIVERSITY OF HEALTH SCIENCES, priority 2020, dated 2026)

What was measured:
[1] = molecular target: T1, calpain-1 (Mus musculus, UniProt O35350); assay: Calpain-1 activity in WT mouse cerebellar homogenate (20 μM Ca2+), Suc-Leu-Tyr-AMC cleavage; type: biochemical; parameters: from tissue; host or cells: wild-type mouse cerebellar (P2) homogenate; settings: 20 μM calcium, read-out: IC50, 20 μM Ca^2+ (Calpain-1)
T1 sequence (O35350 1-713): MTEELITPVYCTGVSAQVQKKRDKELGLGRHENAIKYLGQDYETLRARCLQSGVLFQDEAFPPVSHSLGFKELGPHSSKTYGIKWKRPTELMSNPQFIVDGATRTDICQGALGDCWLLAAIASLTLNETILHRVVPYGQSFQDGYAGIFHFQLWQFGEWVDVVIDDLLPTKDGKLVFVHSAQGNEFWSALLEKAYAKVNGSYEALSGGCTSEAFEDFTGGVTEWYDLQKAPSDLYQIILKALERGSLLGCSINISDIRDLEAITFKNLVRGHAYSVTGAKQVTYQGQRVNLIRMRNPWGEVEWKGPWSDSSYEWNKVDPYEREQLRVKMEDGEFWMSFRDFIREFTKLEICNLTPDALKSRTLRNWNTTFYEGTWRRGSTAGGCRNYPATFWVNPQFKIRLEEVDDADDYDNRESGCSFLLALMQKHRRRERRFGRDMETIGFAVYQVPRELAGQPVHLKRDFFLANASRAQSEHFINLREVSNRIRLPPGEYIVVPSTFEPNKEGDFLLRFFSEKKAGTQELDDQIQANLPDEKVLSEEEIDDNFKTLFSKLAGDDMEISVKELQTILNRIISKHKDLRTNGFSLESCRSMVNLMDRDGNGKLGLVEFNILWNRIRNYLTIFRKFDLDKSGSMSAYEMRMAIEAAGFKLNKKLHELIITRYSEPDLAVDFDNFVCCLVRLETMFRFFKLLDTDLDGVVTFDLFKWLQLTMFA
T1 sequence (O88456 1-268 partner): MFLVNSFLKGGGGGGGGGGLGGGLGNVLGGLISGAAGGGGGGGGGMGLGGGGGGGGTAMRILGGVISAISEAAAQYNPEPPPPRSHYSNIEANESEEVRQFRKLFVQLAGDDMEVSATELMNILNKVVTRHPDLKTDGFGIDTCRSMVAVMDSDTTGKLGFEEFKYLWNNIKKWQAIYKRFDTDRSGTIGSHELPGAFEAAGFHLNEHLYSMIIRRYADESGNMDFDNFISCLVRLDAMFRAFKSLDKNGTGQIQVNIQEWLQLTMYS
Method: Cerebellar homogenates from wild-type (WT) or calpain-1 Knock-out (KO) mice were incubated with 20 μM calcium to activate calpain-1 or with 2 mM calcium to activate calpain-2, respectively, and increasing concentrations of NA112 (12). Calpain activity was measured by the cleavage of Succinyl-Leu-Tyr-7-amino-4-methylcoumarin (Suc-Leu-Tyr-AMC), resulting in increased fluorescence. Activity is normalized to the value measured in the presence of vehicle (DMSO).
WT or calpain-1 KO mouse cerebellar P2 homogenate (crude synaptosomal fraction) were used for measuring inhibitory activity of compounds against the mouse endogenous calpain-1/-2. Each reaction contains 100 ul of WT or calpain-1 KO mouse cerebellar P2 homogenate+0, 20 or 2000 uM Ca^2++0-10,000 nM NA184.
Calpain-1 activity=calpain activity under 20 uM Ca^2+ in WT mice

[2] = molecular target: T2, human calpain-1 (purified from erythrocytes, ecalpain-1) (Homo sapiens, UniProt P07384); assay: Inhibition of human calpain-1 purified from erythrocytes; type: biochemical
T2 construct: human calpain-1 (purified from erythrocytes, ecalpain-1); from tissue; host or cells: human erythrocytes
T2 sequence (P07384 1-714): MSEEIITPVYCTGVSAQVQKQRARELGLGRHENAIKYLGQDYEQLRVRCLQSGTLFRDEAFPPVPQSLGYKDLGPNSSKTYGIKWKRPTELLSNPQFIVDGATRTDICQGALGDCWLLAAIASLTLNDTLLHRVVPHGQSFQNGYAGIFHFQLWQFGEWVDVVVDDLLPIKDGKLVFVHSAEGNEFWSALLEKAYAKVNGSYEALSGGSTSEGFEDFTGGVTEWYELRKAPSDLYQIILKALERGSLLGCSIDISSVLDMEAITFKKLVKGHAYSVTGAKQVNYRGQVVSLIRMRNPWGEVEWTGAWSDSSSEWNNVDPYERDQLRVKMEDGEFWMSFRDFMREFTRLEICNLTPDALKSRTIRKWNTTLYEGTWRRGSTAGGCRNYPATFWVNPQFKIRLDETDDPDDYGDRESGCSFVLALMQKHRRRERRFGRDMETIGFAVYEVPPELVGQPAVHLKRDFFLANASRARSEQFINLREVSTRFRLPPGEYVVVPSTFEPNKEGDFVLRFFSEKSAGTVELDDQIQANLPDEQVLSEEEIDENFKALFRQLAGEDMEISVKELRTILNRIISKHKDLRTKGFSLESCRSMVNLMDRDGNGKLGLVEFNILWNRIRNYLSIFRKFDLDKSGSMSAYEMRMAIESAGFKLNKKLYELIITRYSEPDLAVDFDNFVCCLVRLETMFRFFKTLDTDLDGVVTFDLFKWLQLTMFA
T2 sequence (P04632 1-268 partner): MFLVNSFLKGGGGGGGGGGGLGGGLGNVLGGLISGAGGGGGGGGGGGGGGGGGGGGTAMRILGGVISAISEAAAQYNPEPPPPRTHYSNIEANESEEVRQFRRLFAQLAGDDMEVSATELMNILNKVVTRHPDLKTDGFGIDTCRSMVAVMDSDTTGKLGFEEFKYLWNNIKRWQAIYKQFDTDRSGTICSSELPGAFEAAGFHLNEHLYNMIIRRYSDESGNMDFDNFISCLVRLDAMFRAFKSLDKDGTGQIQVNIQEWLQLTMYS
Method: Various concentrations of NA112 in the liposomal formulation were incubated with human calpain-1 (purified from erythrocytes, ecalpain-1) or a recombinant human calpain-2 (hcalpain-2) and calpain activity assayed as in FIG. 1. IC50 were determined and transformed into Ki values (FIG. 10A, 10B). Values previously obtained with NA112 dissolved in DMSO are shown for comparison (FIG. 10B).
Cerebellar homogenates from wild-type (WT) or calpain-1 Knock-out (KO) mice were incubated with 20 μM calcium to activate calpain-1 or with 2 mM calcium to activate calpain-2, respectively, and increasing concentrations of NA184.
Like in NA112, there are 2 chiral centers in NA184. The inhibitory activity of the compounds NA184A (S-S isomer) and NA184B (S-R stereoisomer) against erythrocyte human calpain-1 (ecalpain-1) and recombinant human calpain-2 (hcalpain-2) were determined.

Compound | IC50 [1] | IC50 [2]
CCC(NC(=O)[C@H](CC(C)C)NC(=O)NCc1ccccc1)C(=O)C(=O)NCc1cc(OC)cc(OC)c1 (mixture of isomers) [NA112, (2S)-2-(3-benzylureido)-N-(1-((3,5-dimethoxybenzyl)amino)-1,2-dioxopentan-3-yl)-4-methylpentanamide] | 1380 nM | 
CCC(NC(=O)[C@H](CC(C)C)NC(=O)NCc1ccccc1)C(=O)C(=O)NCc1cccc(Cl)c1OC (stereo partly drawn) [NA184, (2S)-2-(3-benzylureido)-N-(1-((3-chloro-2-methoxybenzyl)amino)-1,2-dioxopentan-3-yl)-4-methylpentanamide] |  | 543 nM
